Holding throughout (assay type): biochemical
The target in one test is T1, E. coli DNA gyrase (Escherichia coli, UniProt P0AES4+P0AES6).
T1 construct: purchased Inspiralis, UK
Briefly: DNA gyrase supercoiling assay (E. coli). The note with it: for inhibition at 50 µM: E. coli, conc. 50 μM, n/a = not active. An outline of the steps:
(§1)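 Relaxed pBR322 (0.5 μg) supercoiled by E. coli (2 U) or S. aureus (1 U) gyrase, 30 min at 37° C; compounds at single 200, 100 or 50 μM, duplicate. Supercoiled band quantified on ethidium-stained agarose gel, expressed as % inhibition vs DMSO control; IC50 by two-parameter exponential decay fit.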

Another test has as its target T2, E. coli Topoisomerase IV (Escherichia coli, UniProt P0AFI2+P20083).
T2 construct: purchased Inspiralis, UK
In words: Topoisomerase IV decatenation assay (E. coli). The note with it: for inhibition at 50 µM: E. coli, conc. 50 μM, n/a = not active, read-out: % inhibition Topo IV. An outline of the steps:
(§2)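 Topo IV decatenation of kDNA (200 ng) with 0.5 U enzyme in HEPES-KOH pH 7.6 buffer containing 1 mM ATP and Mg acetate, 30 min at 37 °C. Single-concentration screen (200, 100 or 50 μM) in duplicate. Decatenated minicircles resolved on agarose, ethidium-stained band intensity expressed as % inhibition versus vehicle; IC50 from exponential-decay curve fit.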

The target in a further test is T3, S. aureus DNA gyrase (Staphylococcus aureus, UniProt P0A0K8+P20831).
T3 construct: purchased Inspiralis, UK
T3 sequence (P0A0K8 whole entry): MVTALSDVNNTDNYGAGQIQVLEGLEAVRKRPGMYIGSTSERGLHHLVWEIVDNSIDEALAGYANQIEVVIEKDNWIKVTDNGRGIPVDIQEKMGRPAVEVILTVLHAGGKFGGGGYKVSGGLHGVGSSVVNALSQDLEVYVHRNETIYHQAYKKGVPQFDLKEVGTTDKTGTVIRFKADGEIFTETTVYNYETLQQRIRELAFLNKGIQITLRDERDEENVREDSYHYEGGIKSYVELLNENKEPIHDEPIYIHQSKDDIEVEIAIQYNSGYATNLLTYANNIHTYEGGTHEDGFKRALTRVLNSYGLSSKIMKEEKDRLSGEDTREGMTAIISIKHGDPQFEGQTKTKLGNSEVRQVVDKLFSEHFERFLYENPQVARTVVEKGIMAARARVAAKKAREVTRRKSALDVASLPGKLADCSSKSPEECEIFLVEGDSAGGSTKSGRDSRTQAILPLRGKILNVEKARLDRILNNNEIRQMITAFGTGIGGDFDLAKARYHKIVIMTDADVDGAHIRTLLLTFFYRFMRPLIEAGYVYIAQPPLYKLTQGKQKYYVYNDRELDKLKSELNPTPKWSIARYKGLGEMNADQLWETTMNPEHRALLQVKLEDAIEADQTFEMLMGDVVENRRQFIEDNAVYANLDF
T3 sequence (P20831 whole entry): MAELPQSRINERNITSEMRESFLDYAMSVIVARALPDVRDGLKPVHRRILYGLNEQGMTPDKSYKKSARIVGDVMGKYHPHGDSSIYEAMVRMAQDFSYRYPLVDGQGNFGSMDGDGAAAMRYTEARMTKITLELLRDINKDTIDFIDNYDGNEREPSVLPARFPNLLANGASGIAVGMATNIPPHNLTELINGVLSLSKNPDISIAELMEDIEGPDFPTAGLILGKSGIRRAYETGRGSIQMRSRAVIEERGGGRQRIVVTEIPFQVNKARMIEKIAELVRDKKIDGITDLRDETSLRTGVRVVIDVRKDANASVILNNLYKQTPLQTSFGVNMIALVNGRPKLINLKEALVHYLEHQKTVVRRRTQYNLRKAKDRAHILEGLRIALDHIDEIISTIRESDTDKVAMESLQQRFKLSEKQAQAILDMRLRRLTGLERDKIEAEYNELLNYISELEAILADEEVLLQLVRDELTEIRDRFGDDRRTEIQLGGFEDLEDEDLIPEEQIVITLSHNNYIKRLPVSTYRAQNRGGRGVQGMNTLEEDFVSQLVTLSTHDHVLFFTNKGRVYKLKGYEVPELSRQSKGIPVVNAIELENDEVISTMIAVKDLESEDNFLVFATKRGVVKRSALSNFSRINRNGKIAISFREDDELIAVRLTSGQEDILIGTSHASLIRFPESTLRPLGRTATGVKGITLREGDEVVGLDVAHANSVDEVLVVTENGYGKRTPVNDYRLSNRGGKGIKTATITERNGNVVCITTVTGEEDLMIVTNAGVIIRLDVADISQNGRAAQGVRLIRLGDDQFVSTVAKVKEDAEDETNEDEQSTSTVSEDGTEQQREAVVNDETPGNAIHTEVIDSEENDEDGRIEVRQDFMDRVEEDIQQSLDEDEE
In words: DNA gyrase supercoiling assay (S. aureus). Conditions: for inhibition at 50 µM: S. aureus, conc. 50 μM, n/a = not active. An outline of the steps:
as §1

In test [1] the target is T4, S. aureus Topoisomerase IV (Staphylococcus aureus, UniProt P0C1S7+P0C1U9).
T4 construct: purchased Inspiralis, UK
T4 sequence (P0C1S7 whole entry): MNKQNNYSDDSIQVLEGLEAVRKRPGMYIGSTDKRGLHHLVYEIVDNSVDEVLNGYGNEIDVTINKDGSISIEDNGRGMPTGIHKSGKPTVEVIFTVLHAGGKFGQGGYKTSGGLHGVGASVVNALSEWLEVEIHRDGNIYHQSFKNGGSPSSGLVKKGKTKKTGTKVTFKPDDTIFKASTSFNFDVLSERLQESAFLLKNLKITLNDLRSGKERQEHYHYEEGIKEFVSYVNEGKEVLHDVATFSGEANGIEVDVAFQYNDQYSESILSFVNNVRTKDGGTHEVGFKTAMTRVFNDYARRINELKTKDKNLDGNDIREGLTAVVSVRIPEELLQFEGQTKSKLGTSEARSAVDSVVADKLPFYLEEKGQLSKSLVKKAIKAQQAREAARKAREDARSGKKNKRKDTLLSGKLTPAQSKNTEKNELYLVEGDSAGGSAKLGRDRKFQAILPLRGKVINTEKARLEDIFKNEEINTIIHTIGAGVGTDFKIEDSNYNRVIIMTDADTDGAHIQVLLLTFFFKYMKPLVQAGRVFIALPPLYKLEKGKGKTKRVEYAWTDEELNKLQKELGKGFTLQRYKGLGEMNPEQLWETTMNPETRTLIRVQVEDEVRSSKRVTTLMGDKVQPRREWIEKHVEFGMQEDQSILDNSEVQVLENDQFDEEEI
T4 sequence (P0C1U9 whole entry): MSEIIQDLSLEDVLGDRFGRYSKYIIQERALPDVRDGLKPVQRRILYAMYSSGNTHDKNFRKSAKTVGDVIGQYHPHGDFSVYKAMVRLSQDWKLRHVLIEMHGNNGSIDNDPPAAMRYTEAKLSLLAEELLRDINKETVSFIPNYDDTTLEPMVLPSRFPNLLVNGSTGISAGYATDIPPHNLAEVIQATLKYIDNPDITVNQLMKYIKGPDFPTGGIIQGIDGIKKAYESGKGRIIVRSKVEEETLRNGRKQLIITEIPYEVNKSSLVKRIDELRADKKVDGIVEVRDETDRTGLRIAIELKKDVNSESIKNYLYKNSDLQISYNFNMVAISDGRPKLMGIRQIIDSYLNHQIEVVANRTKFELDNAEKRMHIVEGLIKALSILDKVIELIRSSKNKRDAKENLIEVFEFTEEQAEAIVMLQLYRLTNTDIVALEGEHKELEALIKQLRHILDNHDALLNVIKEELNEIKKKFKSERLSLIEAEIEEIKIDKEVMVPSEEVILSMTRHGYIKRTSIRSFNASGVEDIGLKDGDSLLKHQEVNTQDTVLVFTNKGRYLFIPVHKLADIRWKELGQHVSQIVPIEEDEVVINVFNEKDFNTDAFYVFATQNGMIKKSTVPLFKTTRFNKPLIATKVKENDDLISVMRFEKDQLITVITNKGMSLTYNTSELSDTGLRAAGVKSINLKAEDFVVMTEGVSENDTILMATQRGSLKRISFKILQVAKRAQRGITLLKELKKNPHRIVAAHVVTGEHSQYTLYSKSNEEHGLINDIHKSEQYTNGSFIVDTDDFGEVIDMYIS
Briefly: Topoisomerase IV decatenation assay (S. aureus). The note with it: for inhibition at 50 µM: read-out: % inhibition Topo IV. Summed up: as §2

T1 sequence (P0AES4 whole entry, one chain of several): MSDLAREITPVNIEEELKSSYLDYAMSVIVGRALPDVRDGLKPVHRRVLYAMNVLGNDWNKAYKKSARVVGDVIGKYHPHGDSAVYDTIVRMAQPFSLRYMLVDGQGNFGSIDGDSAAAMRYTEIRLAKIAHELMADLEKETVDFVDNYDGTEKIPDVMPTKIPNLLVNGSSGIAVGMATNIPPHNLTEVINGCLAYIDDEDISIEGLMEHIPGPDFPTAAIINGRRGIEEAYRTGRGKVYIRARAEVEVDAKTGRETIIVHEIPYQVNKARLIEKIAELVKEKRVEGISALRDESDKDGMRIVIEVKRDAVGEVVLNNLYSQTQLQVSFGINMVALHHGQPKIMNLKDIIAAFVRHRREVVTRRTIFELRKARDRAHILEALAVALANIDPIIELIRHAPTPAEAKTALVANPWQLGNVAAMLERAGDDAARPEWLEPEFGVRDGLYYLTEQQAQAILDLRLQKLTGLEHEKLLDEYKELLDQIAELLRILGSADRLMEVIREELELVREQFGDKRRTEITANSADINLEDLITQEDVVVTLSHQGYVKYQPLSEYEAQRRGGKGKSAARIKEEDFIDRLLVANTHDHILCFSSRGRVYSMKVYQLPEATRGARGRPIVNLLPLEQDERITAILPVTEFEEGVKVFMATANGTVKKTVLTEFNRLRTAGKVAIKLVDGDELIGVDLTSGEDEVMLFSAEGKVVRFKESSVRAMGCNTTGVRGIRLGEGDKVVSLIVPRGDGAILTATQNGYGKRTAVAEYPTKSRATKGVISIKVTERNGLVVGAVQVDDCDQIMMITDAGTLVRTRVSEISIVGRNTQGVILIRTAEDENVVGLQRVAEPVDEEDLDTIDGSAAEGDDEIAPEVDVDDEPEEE

What is called IC50 is the point on the concentration scale where inhibition reaches its midpoint. A low value points to inhibition by little substance. A word on the inhibition: it is how much of the control response was suppressed. Consider `O=c1oc2ccc(F)cc2c2cc(CNC3CCN(c4nccc5nccnc45)CC3)[nH]c12` [Compound 196, 8-fluoro-2-({[1-(pyrido[3,4-b]pyrazin-5-yl)piperidin-4-yl]amino}methyl)[1]benzopyrano[3,4-b]pyrrol-4(3H)-one], for which the IC50 at E. coli DNA gyrase was 790 nM; at E. coli Topoisomerase IV, 2540 nM; on S. aureus DNA gyrase it was 160 nM; in test [1] it was 390 nM. The inhibition at 50 µM against E. coli DNA gyrase worked out at 85%; at E. coli Topoisomerase IV, 100%; on S. aureus DNA gyrase, 83%; in test [1], 89%.

In the case of `COc1cnc2ccnc(N3CCC(NCc4cc5c([nH]4)c(=O)oc4ccc(F)cc45)CC3)c2n1` [Compound 199, 8-fluoro-2-({[1-(3-methoxypyrido[3,4-b]pyrazin-5-yl)piperidin-4-yl]amino}methyl)[1]benzopyrano[3,4-b]pyrrol-4(3H)-one], the inhibition at 50 µM came out at 90% against E. coli DNA gyrase, 100% at E. coli Topoisomerase IV, 92% at S. aureus DNA gyrase and 100% in test [1].

Regarding `COc1ccc2cc(F)nc(N3CCN(CC(O)CNc4cc(=O)oc5ccc(F)cc45)CC3)c2c1` (stereo not shown) [Compound 203, 6-fluoro-4-({3-[4-(3-fluoro-7-methoxyisoquinolin-1-yl)piperazin-1-yl]-2-hydroxypropyl}amino)-2H-1-benzopyran-2-one], the inhibition at 50 µM (at E. coli DNA gyrase; at E. coli Topoisomerase IV; on S. aureus DNA gyrase; in test [1]) was 100% in each case.
